A word on the IC50: it is the concentration at which inhibition is half-maximal.

The values below come from patent publication US20240408082A1, “METHODS FOR TREATING CANCERS AND TUMORS” (BEYONDSPRING PHARMACEUTICALS, INC., priority 2021, published 2024).

Common to all, as to assay type: cell-based
In experiment [1] the test system is central nervous system cancer. As to the kind of experiment: 3D clonogenic assay, Example 2, central nervous system cancer. The note with it: n=6 models. On the procedure:
(§1) The present study investigated plinabulin for anticancer activity ex vivo in 68 out of 71 originally planned patient-derived xenograft (PDX) models representing major cancer types. Experiments were performed using a 3D clonogenic assay in a 96-well format with colony count based on image analysis as a read-out. By using this assay, the investigational compound was assessed for the ability to inhibit anchorage independent growth and ex vivo colony formation of tumor cells in semi-solid medium.
(§2) A master stock solution of plinabulin was prepared by dissolving the compound in DMSO at a concentration of 9.9 mM. Working stock solutions were prepared by diluting the master stock solution with DMSO to a concentration of 0.99 mM (330-fold the highest test concentration). Small aliquots of the master and working stock were stored at −20° C. […]
(§3) Plinabulin was investigated in 68 PDX models representing a number of cancer types. […] The percentage of viable cells was determined in a Neubauer-hemocytometer using trypan blue exclusion. […]
(§4) The clonogenic assay was carried out in a 96 well plate format using ultra low attachment plates. […] Cultures were incubated at 37° C. and 7.5% CO2 in a humidified atmosphere 13 days in total and monitored closely for colony growth using an inverted microscope. […]

Experiment [2] has as its system small cell lung cancer model LXFS 650. As to the kind of experiment: 3D clonogenic assay, Example 2, LXFS 650. Here is the method:
as §1, §2, §3, §4

Experiment [3] relates to osteosarcoma model SXFO 1186. As to the kind of experiment: 3D clonogenic assay, Example 2, SXFO 1186. Here is the method: as §1, §2, §3, §4
The test system of experiment [4] is Her2-enriched breast cancer models. Nature of the experiment: 3D clonogenic assay, Example 2, Her2-enriched breast cancer models. Particulars: n=6 models. On the procedure:
as §1, §2, §3, §4

For `CC(C)(C)c1[nH]cnc1/C=c1\[nH]c(=O)/c(=C/c2ccccc2)[nH]c1=O` [plinabulin, (3Z,6Z)-3-Benzylidene-6-{[5-(2-methyl-2-propanyl)-1H-imidazol-4-yl]methylene}-2,5-piperazinedione], the “geom. mean abs. IC70” value in experiment [1] turned out to be 1521 nM. In addition, the IC50 in experiment [1] (read-out: geom. mean abs. IC50) was found to be 426 nM; in experiment [2] (read-out: abs. IC50), 22 nM; in experiment [3] (read-out: abs. IC50), 19 nM; in experiment [4] (read-out: geom. mean abs. IC50) it was 2250 nM. Also, the “abs. IC70” value in experiment [2] was determined as 32 nM; in experiment [3], 27 nM. Besides, the “geometric mean absolute IC70” value in experiment [4] was more than 3000 nM.
